{"source": "ChEMBL document CHEMBL1201862", "about": "“PubChem BioAssay data set” (2004)", "assay_in_all_cases": "NCI tumour cell line growth inhibition, 48 h", "key": {"HOP-92": {"tested_on": "HOP-92"}, "IGROV-1": {"tested_on": "IGROV-1"}, "UACC-257": {"tested_on": "UACC-257"}, "HT-29": {"tested_on": "HT-29"}, "A498": {"tested_on": "A498"}, "SNB-75": {"tested_on": "SNB-75"}, "DLD-1": {"tested_on": "DLD-1"}, "NCI-H226": {"tested_on": "NCI-H226"}, "SF-539": {"tested_on": "SF-539"}, "SF-268": {"tested_on": "SF-268"}, "HL-60": {"tested_on": "HL-60"}, "EKVX": {"tested_on": "EKVX"}, "SK-OV-3": {"tested_on": "SK-OV-3"}, "OVCAR-5": {"tested_on": "OVCAR-5"}, "PC-3": {"tested_on": "PC-3"}, "SNB-19": {"tested_on": "SNB-19"}, "SF-295": {"tested_on": "SF-295"}, "SK-MEL-2": {"tested_on": "SK-MEL-2"}, "M14": {"tested_on": "M14"}, "CCRF-CEM": {"tested_on": "CCRF-CEM"}}, "note": "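Dose response: 5 concentrations. Exposure: 48 h. Format: 96-well plates. Endpoint: linear interpolation; highest concentration if not reached. GI50 is the concentration that inhibits growth by half.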 Calls of active or inactive are those of the source. Cut-off read from the data, not from the text of the source: active = GI50 up to about 1.1 µM and inactive = higher."}
{"smiles": "CCSc1nc(N2CCCC2)s[s+]1.[O-][Cl+3]([O-])([O-])[O-]", "values": [{"measurement": "GI50", "setting": "HOP-92", "value": "64.7 µM (inactive)"}, {"measurement": "GI50", "setting": "IGROV-1", "value": "4.07 µM (inactive)"}, {"measurement": "GI50", "setting": "UACC-257", "value": "36.9 µM (inactive)"}, {"measurement": "GI50", "setting": "HT-29", "value": "0.582 µM (active)"}, {"measurement": "GI50", "setting": "A498", "value": "6.75 µM (inactive)"}, {"measurement": "GI50", "setting": "SNB-75", "value": "24.3 µM (inactive)"}, {"measurement": "GI50", "setting": "DLD-1", "value": "85.3 µM (inactive)"}, {"measurement": "GI50", "setting": "NCI-H226", "value": "63.4 µM (inactive)"}, {"measurement": "GI50", "setting": "SF-539", "value": "43 µM (inactive)"}, {"measurement": "GI50", "setting": "SF-268", "value": "40.2 µM (inactive)"}, {"measurement": "GI50", "setting": "HL-60", "value": "2.92 µM (inactive)"}, {"measurement": "GI50", "setting": "EKVX", "value": "67.3 µM (inactive)"}, {"measurement": "GI50", "setting": "SK-OV-3", "value": "84.1 µM (inactive)"}, {"measurement": "GI50", "setting": "OVCAR-5", "value": "> 100 µM (inactive)"}, {"measurement": "GI50", "setting": "PC-3", "value": "31.7 µM (inactive)"}, {"measurement": "GI50", "setting": "SNB-19", "value": "> 100 µM (inactive)"}, {"measurement": "GI50", "setting": "SF-295", "value": "54.6 µM (inactive)"}, {"measurement": "GI50", "setting": "SK-MEL-2", "value": "60.7 µM (inactive)"}, {"measurement": "GI50", "setting": "M14", "value": "25.4 µM (inactive)"}, {"measurement": "GI50", "setting": "CCRF-CEM", "value": "0.764 µM (active)"}]}
{"smiles": "CCCCc1c2c(nc3c1CCC/C3=C\\c1ccccc1)C(=O)C(CN(C)C)CC2", "note": "(stereo not given)", "values": [{"measurement": "GI50", "setting": "HOP-92", "value": "16.6 µM (inactive)"}, {"measurement": "GI50", "setting": "IGROV-1", "value": "18.3 µM (inactive)"}, {"measurement": "GI50", "setting": "UACC-257", "value": "17 µM (inactive)"}, {"measurement": "GI50", "setting": "HT-29", "value": "12.4 µM (inactive)"}, {"measurement": "GI50", "setting": "A498", "value": "18.7 µM (inactive)"}, {"measurement": "GI50", "setting": "SNB-75", "value": "18.1 µM (inactive)"}, {"measurement": "GI50", "setting": "DLD-1", "value": "17.1 µM (inactive)"}, {"measurement": "GI50", "setting": "NCI-H226", "value": "22.6 µM (inactive)"}, {"measurement": "GI50", "setting": "SF-539", "value": "20.7 µM (inactive)"}, {"measurement": "GI50", "setting": "SF-268", "value": "16.2 µM (inactive)"}, {"measurement": "GI50", "setting": "HL-60", "value": "2.67 µM (inactive)"}, {"measurement": "GI50", "setting": "EKVX", "value": "18.5 µM (inactive)"}, {"measurement": "GI50", "setting": "SK-OV-3", "value": "18.5 µM (inactive)"}, {"measurement": "GI50", "setting": "OVCAR-5", "value": "18.2 µM (inactive)"}, {"measurement": "GI50", "setting": "PC-3", "value": "14.1 µM (inactive)"}, {"measurement": "GI50", "setting": "SNB-19", "value": "18.3 µM (inactive)"}, {"measurement": "GI50", "setting": "SF-295", "value": "16.7 µM (inactive)"}, {"measurement": "GI50", "setting": "SK-MEL-2", "value": "20.2 µM (inactive)"}, {"measurement": "GI50", "setting": "M14", "value": "17.4 µM (inactive)"}, {"measurement": "GI50", "setting": "CCRF-CEM", "value": "3.17 µM (inactive)"}]}
{"smiles": "O=C1C(Cl)=C(Cl)C(=O)N1c1ccc(F)cc1", "note": "[FLUOROIMIDE]", "values": [{"measurement": "GI50", "setting": "HOP-92", "value": "17.6 µM (inactive)"}, {"measurement": "GI50", "setting": "IGROV-1", "value": "18.6 µM (inactive)"}, {"measurement": "GI50", "setting": "UACC-257", "value": "36.1 µM (inactive)"}, {"measurement": "GI50", "setting": "HT-29", "value": "22.5 µM (inactive)"}, {"measurement": "GI50", "setting": "A498", "value": "> 100 µM (inactive)"}, {"measurement": "GI50", "setting": "SNB-75", "value": "12.8 µM (inactive)"}, {"measurement": "GI50", "setting": "DLD-1", "value": "18.2 µM (inactive)"}, {"measurement": "GI50", "setting": "NCI-H226", "value": "42.7 µM (inactive)"}, {"measurement": "GI50", "setting": "SF-539", "value": "23.5 µM (inactive)"}, {"measurement": "GI50", "setting": "SF-268", "value": "28.8 µM (inactive)"}, {"measurement": "GI50", "setting": "HL-60", "value": "1.89 µM (inactive)"}, {"measurement": "GI50", "setting": "EKVX", "value": "21.4 µM (inactive)"}, {"measurement": "GI50", "setting": "SK-OV-3", "value": "28.6 µM (inactive)"}, {"measurement": "GI50", "setting": "OVCAR-5", "value": "20.9 µM (inactive)"}, {"measurement": "GI50", "setting": "PC-3", "value": "16.3 µM (inactive)"}, {"measurement": "GI50", "setting": "SNB-19", "value": "> 58.3 µM (inactive)"}, {"measurement": "GI50", "setting": "SF-295", "value": "> 53.2 µM (inactive)"}, {"measurement": "GI50", "setting": "SK-MEL-2", "value": "46.1 µM (inactive)"}, {"measurement": "GI50", "setting": "M14", "value": "19.5 µM (inactive)"}, {"measurement": "GI50", "setting": "CCRF-CEM", "value": "2.75 µM (inactive)"}]}
